According to patent publication US20260176270A1 (Exelixis, Inc., priority 2022, published 2026):
Read-outs that look alike come from different tables or passages of the source.

Experiments:
[1] = target: T1, PKMYT1 (Homo sapiens, UniProt Q99640); assay: ADP-Glo PKMYT1 ATP-depletion assay; details: 50 nM PKMYT1, 13.3 nM CDK1, read-out: Biochemical IC50
T1 construct: PKMYT1 (93 kD, full length, N-terminal GST tag from Signal Chem); GST (N); purchased Signal Chem
T1 sequence (Q99640 1-499): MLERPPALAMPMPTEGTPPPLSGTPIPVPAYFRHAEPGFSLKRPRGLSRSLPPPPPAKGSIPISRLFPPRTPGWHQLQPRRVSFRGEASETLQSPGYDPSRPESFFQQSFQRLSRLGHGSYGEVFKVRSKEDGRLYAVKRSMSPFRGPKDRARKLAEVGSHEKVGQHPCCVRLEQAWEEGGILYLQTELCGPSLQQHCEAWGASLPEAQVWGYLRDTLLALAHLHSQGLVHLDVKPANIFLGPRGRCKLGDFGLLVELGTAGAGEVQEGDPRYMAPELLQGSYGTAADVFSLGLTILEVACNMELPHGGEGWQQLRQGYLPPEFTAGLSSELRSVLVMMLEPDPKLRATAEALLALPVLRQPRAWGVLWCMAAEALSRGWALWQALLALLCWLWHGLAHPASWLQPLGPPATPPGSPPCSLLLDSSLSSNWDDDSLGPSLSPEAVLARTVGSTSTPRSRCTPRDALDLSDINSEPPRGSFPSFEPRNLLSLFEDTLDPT
Method in brief: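 Full-length N-terminal GST-tagged PKMYT1 (50 nM) with GST-CDK1 (13.3 nM) as substrate and 88 µM ATP, in Hepes buffer with MgCl2, MnCl2, DTT and BSA; DMSO <1%. Incubated 120 min at RT. ADP formed was quantified by ADP-Glo luminescence and used to derive biochemical IC50.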

[2] = tested on: phosphorylation of CDK1 at Thr14 in HCC1806 cells; assay: Cell lysate AlphaLISA assay measuring inhibition of phosphorylation of CDK1 Thr14; format: cell-based; details: read-out: Cellular IC50
Method in brief: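 HCC1806 cells seeded overnight, then treated 4 h at 37 °C, 5% CO2 with compounds in DMSO; washed and lysed, lysates frozen overnight at −80 °C. CDK1 Thr14 phosphorylation read by AlphaLISA SureFire Ultra; data normalized to DMSO (0% inhibition) and 3 μM reference compound to give IC50.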

Compound | IC50 [1] [nM] | IC50 ([2]; Homo sapiens, HCC1806, 4 h) [nM] | IC50 ([2]; 4 hours) [nM]
Cc1c(O)cccc1-c1c(N)c(C(N)=O)cc2nc(N3CCOCC3)cnc12 [Compound 321] | < 50 | 500 to 1000 | 
NC(=O)c1nc2cccnc2c(-c2cnn3c2CCCC3)c1N [Compound 322] | 1000 to 5000 | ≥ 5000 | 
NC(=O)c1nc2cccnc2c(-c2cnn3ccccc23)c1N [Compound 323] | 1000 to 5000 | ≥ 5000 | 
CCn1ccc2cc(C(N)=O)c(N)c(-c3cccc(O)c3C)c2c1=O [Compound 324] | 50 to 500 |  | 500 to 1000
CCNc1cnc2c(-c3c(C)ccc(O)c3C)c(N)c(C(N)=O)cc2n1 [Compound 326] | 50 to 500 | 1000 to 5000 | 
COc1ccnc2c(-c3c(C)ccc(O)c3C)c(N)c(C(N)=O)cc12 [Compound 330] | < 50 | < 50 | 
Cc1c(O)cc(O)cc1-c1c(N)c(C(N)=O)cc2nccnc12 [Compound 331] | 50 to 500 | ≥ 5000 | 
Cn1ncc2c(-c3c(N)c(C(N)=O)nc4cccnc34)cncc21 [Compound 332] | 1000 to 5000 | ≥ 5000 | 
COc1ccnc2cc(C(N)=O)c(N)c(-c3cccc(O)c3C)c12 [Compound 333] | 50 to 500 | < 50 | 
Cc1c(O)cncc1-c1c(N)c(C(N)=O)nc2c1NCCC2 [Compound 334] | 1000 to 5000 | ≥ 5000 | 
Cc1c(O)cccc1-c1c(N)c(C(N)=O)cc2ccncc12 [Compound 335] | 50 to 500 | 1000 to 5000 | 
Cc1c(O)cccc1-c1c(N)c(C(N)=O)nc2cccc(C(N)=O)c12 [Compound 338] | 50 to 500 | 1000 to 5000 | 
Cc1ccc(O)c(C)c1-c1c(N)c(C(N)=O)cc2nc(N3CCC4(COC4)C3)cnc12 [Compound 339] | 50 to 500 | 1000 to 5000 | 
